# Read-outs that look alike come from different tables or passages of the source. Non-standard residues stand in square brackets, D forms with d. Residues, ends and D or L forms follow the SMILES beside them. No end group written: not given here. Nle = CCCC[C@H](N)C(=O)O
# How the values were obtained:
# [1] = molecular target: human MRGPRX1 receptor (Homo sapiens, UniProt Q96LB2); experiment: DiscoverX calcium mobilization cell culture assay, agonist mode (FLIPR Tetra); format: cell-based; settings: Table 2 initial screening data, agonist format, peptides
# Method: DiscoverX® Calcium cell line overexpressing naturally Gq coupled, wildtype human MRGPRX1 receptor was used to detect calcium mobilization in response to agonist stimulation of the receptor. Cells were plated in a 384-well plate and incubated overnight at 37° C. and 5% CO2 to allow the cells to attach and grow. Culture media was removed and replaced with dye loading buffer from the Calcium No WashPLUS detection kit according to the recommended protocol. Cells were incubated with peptides to induce response and calcium mobilization was detected using a FLIPR® Tetra (Molecular Devices, Inc.).
# Compound activity was analyzed using Chemical and Biological Information System (CBIS) data analysis suite (ChemInnovation, CA). For agonist mode assays, percentage activity is calculated using the following formula: % Activity=100%×(mean RFU of test sample−mean RFU of vehicle control)/(mean MAX RFU control ligand−mean RFU of vehicle control). […] RFU means relative fluorescence units.
# [2] = test system: mechanical allodynia; settings: rat, spinal nerve ligation, intrathecal; cited from earlier work
# [3] = test system: mechanical allodynia; settings: mouse, chronic constriction injury, intrathecal; cited from earlier work
# human MRGPRX1 receptor, sequence (Q96LB2 whole entry): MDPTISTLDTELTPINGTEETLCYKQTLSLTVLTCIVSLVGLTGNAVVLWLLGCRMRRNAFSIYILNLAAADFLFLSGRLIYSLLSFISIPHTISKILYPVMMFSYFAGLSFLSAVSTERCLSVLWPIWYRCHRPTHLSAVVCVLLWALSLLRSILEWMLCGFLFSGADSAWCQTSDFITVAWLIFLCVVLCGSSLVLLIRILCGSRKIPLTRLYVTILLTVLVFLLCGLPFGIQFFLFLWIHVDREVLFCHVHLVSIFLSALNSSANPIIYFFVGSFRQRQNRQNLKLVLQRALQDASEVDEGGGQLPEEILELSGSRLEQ
compound,measurement,setting,value
"CCCC[C@H](NC(=O)[C@H](Cc1c[nH]c2ccccc12)NC(=O)[C@H](Cc1c[nH]c2ccccc12)NC(=O)[C@H](CCC(=O)O)NC(=O)[C@@H]1CCCN1C(=O)[C@H](CCCNC(=N)N)NC(=O)CNC(=O)[C@@H](N)C(C)C)C(=O)N[C@@H](CC(=O)O)C(=O)N[C@@H](Cc1ccc(O)cc1)C(=O)N[C@@H](CCC(N)=O)C(=O)N[C@@H](CCCCN)C(=O)N[C@@H](CCCNC(=N)N)C(=O)N[C@@H](Cc1ccc(O)cc1)C(=O)NCC(=O)O [OK-205, VGRPEWW-Nle-DYQKRYG (SEQ ID NO: 22)] (H-VGRPEWW[Nle]DYQKRYG-OH; N-terminus and C-terminus assumed)",EC50,[1],11.1 nM
"CSCC[C@H](NC(=O)[C@H](Cc1c[nH]c2ccccc12)NC(=O)[C@H](Cc1c[nH]c2ccccc12)NC(=O)[C@H](CCC(=O)O)NC(=O)[C@@H]1CCCN1C(=O)[C@H](CCCNC(=N)N)NC(=O)CNC(=O)[C@H](N)C(C)C)C(=O)N[C@@H](CC(=O)O)C(=O)N[C@@H](Cc1ccc(O)cc1)C(=O)N[C@@H](CCC(N)=O)C(=O)N[C@@H](CCCCN)C(=O)N[C@@H](CCCNC(=N)N)C(=O)N[C@@H](Cc1ccc(O)cc1)C(=O)NCC(=O)O [OK-206, dV-GRPEWWMDYQKRY-dG (SEQ ID NO: 23)] (H-[dV]GRPEWWMDYQKRYG-OH; N-terminus and C-terminus assumed)",EC50,[1],1.02 nM
"GRPEWWMDYQKRY [OK-203, GRPEWWMDYQKRY (SEQ ID NO: 3)]",EC50,[1],0.67 nM
"VGRPEWWMDSQKRYG [OK-202, VGRPEWWMDSQKRYG (SEQ ID NO: 54)]",EC50,[1],1580 nM
"VGRPEWWMDYQKRYG [BAM-8-22, VGRPEWWMDYQKRYG (SEQ ID NO: 21)]",baseline nociception,[2],did not affect baseline nociception
same,mechanical allodynia,[2],attenuates mechanical allodynia
same,baseline nociception,[3],did not affect baseline nociception
same,mechanical allodynia,[3],attenuates mechanical allodynia
same,EC50,[1],1.33 nM
